Results as given in ChEMBL document CHEMBL1201862, “PubChem BioAssay data set” (2004).
The source made the active and inactive calls.

How the values were obtained:
Assay type in all cases: functional
Aurora kinase A = target: T1, Aurora kinase A (Homo sapiens, UniProt O14965);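 further: value from the Navigating the Kinome kinase panel profiling, panel entry STK6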
T1 sequence (O14965 whole entry): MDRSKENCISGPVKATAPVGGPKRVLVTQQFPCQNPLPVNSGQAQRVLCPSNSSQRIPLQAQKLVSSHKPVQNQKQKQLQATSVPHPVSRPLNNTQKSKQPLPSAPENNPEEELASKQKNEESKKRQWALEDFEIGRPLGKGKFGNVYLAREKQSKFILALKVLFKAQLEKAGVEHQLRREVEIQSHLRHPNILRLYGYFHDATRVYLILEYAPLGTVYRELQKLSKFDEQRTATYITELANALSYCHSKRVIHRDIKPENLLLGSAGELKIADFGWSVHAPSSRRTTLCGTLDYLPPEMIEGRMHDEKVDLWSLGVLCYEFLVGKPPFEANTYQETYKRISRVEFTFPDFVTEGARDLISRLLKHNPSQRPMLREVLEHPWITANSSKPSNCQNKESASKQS

[1] = target: Leukocyte tyrosine kinase receptor (Homo sapiens, UniProt P29376); experiment: Navigating the Kinome. Panel member name: LTK
[2] = target: Protein kinase C theta type (Homo sapiens, UniProt Q04759); experiment: Navigating the Kinome. Panel member name: PRKCQ
Protein kinase C theta type, sequence (Q04759 whole entry): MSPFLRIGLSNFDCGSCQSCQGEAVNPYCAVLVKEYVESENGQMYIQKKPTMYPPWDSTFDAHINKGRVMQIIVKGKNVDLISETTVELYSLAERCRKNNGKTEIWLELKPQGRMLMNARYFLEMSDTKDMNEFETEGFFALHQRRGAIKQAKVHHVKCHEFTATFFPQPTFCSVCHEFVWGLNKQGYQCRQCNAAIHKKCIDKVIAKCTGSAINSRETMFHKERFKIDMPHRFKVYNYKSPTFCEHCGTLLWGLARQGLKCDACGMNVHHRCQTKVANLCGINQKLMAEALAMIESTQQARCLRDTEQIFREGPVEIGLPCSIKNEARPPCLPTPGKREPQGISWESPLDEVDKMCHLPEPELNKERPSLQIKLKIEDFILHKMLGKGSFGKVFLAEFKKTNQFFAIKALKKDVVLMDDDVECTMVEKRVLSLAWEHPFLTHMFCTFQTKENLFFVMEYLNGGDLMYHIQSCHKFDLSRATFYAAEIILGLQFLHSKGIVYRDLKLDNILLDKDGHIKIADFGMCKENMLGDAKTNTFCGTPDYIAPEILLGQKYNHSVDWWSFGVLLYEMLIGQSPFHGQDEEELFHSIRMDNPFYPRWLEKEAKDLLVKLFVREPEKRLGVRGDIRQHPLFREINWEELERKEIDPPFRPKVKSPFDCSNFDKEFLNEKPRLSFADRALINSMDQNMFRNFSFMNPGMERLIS

[3] = target: Leucine-rich repeat serine/threonine-protein kinase 2 (Homo sapiens, UniProt Q5S007);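 further: value from a broad kinome-wide panel profiling study in which LRRK2 was one of the kinases tested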
Leucine-rich repeat serine/threonine-protein kinase 2, sequence (Q5S007 whole entry): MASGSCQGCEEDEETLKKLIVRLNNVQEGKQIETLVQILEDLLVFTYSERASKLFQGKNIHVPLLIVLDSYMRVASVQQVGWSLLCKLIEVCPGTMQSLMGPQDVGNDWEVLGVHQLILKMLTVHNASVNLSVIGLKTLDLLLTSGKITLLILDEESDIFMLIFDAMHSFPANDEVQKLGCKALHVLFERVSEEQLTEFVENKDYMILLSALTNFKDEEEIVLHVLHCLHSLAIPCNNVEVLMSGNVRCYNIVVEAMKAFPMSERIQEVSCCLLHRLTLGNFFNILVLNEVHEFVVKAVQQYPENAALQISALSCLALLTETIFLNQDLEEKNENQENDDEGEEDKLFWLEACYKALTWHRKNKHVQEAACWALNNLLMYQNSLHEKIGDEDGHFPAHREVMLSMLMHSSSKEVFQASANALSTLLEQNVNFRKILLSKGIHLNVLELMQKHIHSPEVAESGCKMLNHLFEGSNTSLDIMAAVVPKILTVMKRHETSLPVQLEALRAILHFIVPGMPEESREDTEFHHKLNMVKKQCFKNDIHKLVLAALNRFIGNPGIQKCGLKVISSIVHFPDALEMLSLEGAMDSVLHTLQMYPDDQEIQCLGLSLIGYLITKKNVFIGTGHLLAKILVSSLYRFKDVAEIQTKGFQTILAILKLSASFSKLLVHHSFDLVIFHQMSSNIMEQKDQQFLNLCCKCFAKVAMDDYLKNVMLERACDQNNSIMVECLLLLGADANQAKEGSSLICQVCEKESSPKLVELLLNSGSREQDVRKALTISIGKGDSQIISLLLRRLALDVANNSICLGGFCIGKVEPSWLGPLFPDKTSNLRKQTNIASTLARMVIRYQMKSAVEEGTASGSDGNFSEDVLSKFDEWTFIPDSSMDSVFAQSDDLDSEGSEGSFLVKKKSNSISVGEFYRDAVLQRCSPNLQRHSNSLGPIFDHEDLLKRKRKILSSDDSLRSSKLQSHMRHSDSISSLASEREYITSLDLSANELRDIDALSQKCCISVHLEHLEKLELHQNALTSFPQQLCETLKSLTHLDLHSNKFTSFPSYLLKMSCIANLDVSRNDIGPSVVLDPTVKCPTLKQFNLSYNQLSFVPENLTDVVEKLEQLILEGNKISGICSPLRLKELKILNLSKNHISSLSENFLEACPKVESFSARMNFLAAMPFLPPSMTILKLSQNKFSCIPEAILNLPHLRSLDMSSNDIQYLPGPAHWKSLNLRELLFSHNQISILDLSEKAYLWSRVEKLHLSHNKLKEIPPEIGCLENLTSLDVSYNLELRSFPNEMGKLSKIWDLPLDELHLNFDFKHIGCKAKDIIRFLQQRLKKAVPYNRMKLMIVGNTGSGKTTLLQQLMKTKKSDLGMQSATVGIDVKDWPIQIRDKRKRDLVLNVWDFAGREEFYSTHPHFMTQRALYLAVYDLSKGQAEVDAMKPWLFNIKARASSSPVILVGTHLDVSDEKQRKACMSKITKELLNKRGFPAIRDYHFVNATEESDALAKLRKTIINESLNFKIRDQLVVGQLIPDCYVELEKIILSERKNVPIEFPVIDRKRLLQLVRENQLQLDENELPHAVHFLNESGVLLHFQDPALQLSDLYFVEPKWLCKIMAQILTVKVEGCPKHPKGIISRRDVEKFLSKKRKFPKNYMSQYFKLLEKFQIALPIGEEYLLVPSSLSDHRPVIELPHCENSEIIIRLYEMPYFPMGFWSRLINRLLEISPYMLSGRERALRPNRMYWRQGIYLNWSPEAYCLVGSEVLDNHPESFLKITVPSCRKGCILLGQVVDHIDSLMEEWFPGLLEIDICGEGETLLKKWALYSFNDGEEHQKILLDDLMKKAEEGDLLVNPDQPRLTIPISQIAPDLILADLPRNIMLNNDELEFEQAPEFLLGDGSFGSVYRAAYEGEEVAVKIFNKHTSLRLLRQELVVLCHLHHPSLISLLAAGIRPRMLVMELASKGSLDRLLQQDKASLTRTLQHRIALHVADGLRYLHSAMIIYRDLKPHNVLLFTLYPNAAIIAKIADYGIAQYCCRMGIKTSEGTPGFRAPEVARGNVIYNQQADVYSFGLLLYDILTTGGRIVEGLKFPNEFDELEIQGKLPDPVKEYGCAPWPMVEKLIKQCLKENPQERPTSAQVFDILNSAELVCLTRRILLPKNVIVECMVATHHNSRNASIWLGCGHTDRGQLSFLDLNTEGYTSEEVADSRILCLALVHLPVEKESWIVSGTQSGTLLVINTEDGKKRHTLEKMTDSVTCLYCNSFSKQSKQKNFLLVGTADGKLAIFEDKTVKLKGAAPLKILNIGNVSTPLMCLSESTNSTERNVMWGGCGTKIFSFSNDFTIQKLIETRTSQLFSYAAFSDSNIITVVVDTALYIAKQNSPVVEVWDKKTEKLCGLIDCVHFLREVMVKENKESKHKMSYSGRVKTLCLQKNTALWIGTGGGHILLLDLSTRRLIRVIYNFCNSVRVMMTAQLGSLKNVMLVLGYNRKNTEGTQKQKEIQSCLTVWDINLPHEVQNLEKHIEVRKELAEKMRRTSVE

[4] = target: Tyrosine-protein kinase ABL1 (Homo sapiens, UniProt P00519)
Tyrosine-protein kinase ABL1, sequence (P00519 whole entry): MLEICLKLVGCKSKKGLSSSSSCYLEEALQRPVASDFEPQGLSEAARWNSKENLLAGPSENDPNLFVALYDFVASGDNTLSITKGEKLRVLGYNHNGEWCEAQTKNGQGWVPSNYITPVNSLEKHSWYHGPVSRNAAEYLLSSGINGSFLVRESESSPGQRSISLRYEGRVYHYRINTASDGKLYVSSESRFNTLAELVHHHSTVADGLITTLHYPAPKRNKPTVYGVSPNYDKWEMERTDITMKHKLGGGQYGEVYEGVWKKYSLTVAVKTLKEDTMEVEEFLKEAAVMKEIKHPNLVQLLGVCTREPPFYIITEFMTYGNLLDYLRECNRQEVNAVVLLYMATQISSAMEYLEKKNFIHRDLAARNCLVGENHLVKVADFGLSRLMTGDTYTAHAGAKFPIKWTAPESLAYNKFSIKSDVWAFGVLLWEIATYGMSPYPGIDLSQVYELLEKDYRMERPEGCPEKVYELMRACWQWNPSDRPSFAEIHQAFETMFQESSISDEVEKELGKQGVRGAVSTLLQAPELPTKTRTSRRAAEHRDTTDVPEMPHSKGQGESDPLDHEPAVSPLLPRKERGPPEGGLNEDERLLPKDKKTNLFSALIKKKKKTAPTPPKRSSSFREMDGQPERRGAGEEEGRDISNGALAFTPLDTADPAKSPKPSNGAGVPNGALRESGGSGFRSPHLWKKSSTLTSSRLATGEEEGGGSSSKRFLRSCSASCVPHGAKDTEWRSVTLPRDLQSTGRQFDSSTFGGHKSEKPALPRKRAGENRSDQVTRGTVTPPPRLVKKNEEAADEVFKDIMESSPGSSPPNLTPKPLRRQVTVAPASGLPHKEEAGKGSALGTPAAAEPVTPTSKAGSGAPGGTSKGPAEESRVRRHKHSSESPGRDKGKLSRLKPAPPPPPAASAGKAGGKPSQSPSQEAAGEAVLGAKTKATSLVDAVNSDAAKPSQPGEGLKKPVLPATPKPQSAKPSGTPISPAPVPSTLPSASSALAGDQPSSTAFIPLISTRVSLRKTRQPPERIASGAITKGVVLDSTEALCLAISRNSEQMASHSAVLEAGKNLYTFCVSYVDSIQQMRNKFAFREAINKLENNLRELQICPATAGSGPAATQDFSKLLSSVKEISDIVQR

[5] = target: T2, Mitogen-activated protein kinase kinase kinase kinase 2 (Homo sapiens, UniProt Q12851);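 further: measured as one member of a kinome-wide kinase panel, with MAP4K2 as the panel entry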
T2 sequence (Q12851 whole entry): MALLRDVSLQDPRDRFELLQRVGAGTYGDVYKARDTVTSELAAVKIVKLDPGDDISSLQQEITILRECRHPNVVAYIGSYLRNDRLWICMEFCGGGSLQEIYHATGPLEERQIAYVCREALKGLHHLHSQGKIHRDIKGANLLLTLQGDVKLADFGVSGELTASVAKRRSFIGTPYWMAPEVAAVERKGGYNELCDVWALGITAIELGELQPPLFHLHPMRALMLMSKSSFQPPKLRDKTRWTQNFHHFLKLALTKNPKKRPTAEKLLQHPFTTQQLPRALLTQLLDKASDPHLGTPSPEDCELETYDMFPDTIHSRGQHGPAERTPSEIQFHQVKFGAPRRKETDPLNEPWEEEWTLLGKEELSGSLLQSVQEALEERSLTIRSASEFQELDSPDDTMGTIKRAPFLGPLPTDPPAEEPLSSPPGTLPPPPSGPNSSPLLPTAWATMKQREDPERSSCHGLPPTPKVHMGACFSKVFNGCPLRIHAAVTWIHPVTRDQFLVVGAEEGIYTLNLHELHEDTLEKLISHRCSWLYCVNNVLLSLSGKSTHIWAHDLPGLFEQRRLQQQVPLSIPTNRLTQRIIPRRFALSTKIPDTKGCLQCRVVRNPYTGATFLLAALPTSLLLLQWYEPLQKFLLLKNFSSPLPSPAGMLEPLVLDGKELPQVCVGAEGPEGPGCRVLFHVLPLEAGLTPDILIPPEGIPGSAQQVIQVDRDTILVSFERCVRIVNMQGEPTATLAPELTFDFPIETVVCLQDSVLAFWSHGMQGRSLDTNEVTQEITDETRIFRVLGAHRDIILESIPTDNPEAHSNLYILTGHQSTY

[6] = target: Dual specificity mitogen-activated protein kinase kinase 2 (Homo sapiens, UniProt P36507); experiment: Navigating the Kinome. Panel member name: MAP2K2
[7] = target: Glycogen synthase kinase-3 beta (Homo sapiens, UniProt P49841);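 further: value comes from a broad kinome profiling panel, with GSK3B as the panel member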
[8] = target: T3, Tyrosine-protein kinase receptor TYRO3 (Homo sapiens, UniProt Q06418);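 further: TYRO3 value obtained as one member of a kinome-wide profiling panel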
T3 sequence (Q06418 whole entry): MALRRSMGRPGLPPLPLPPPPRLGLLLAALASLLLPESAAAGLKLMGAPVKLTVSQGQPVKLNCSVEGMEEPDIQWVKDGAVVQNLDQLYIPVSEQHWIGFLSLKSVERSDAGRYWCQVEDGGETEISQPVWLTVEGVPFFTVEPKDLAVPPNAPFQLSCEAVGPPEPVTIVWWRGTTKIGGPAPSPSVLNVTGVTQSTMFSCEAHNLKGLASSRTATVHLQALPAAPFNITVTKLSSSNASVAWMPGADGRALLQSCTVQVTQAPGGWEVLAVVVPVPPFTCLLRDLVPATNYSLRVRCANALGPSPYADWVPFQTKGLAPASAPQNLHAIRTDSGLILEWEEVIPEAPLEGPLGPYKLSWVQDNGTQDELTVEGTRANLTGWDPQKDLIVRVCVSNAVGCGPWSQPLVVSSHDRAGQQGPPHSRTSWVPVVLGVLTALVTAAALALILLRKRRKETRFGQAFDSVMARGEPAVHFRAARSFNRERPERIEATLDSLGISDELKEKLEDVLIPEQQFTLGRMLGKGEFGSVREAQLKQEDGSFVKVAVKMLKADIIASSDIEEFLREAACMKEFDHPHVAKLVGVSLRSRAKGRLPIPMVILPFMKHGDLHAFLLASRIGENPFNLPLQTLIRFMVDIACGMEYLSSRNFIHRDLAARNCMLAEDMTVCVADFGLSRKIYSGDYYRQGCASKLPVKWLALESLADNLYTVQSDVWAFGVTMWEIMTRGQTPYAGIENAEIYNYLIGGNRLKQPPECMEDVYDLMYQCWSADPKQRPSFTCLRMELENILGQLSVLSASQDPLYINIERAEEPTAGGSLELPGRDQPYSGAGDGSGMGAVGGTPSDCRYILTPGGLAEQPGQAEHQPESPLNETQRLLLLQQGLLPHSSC

[9] = target: Tyrosine-protein kinase Lck (Homo sapiens, UniProt P06239);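 further: lck was assayed as one member of a kinase panel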
[10] = target: Mitogen-activated protein kinase 8 (Homo sapiens, UniProt P45983);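 further: value comes from one member of a kinome-wide kinase profiling panel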
Mitogen-activated protein kinase 8, sequence (P45983 whole entry): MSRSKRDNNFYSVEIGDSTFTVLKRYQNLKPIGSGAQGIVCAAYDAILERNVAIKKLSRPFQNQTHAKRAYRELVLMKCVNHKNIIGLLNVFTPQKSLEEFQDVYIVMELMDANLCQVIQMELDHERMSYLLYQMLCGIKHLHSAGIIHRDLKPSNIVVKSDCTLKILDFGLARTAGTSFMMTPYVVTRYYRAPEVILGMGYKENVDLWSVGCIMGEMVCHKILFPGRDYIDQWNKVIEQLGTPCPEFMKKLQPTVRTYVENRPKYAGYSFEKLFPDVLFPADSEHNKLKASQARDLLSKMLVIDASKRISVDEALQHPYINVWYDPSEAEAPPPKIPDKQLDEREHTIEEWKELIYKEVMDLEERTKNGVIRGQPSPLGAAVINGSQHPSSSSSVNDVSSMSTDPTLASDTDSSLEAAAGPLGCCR

Ki (Aurora kinase A) | Ki [1] | Ki [2] | Ki [3] | Ki [4] | Ki [5] | Ki [6] | Ki [7] | Ki [8] | Ki [9] | Ki [10] | SMILES
10 µM (active) | 7.94 µM (active) | 31.6 µM (active) | 3.98 µM (active) | 15.8 µM (active) | 12.6 µM (active) | 50.1 µM (active) | 63.1 µM (active) | 31.6 µM (active) |  |  | O=c1[nH]c2cc(Br)cnc2[nH]1
1.26 µM (active) | 0.2 µM (active) | 0.2 µM (active) | 0.1 µM (active) |  | > 2.51 µM (inactive) | > 3.98 µM (inactive) | > 3.98 µM (inactive) | > 2 µM (inactive) | 3.98 µM (active) | > 5.01 µM (inactive) | CCC1CC(NS(=O)(=O)C2CC2)CC1c1ncc2cnc3[nH]ccc3n12 (stereo not given)
> 1.58 µM (inactive) | > 2.51 µM (inactive) | > 2.51 µM (inactive) | > 2.51 µM (inactive) | > 3.16 µM (inactive) | > 2.51 µM (inactive) | > 3.98 µM (inactive) |  | > 3.16 µM (inactive) | > 6.31 µM (inactive) | > 5.01 µM (inactive) | O=C(Nc1cccc(C(F)(F)F)n1)Nc1ccnc2cc(OC(F)F)ccc12
> 1.58 µM (inactive) | > 2.51 µM (inactive) | > 2.51 µM (inactive) | > 2.51 µM (inactive) | 3.98 µM (active) | > 2.51 µM (inactive) | > 3.98 µM (inactive) | 0.00794 µM (active) | > 3.16 µM (inactive) | > 6.31 µM (inactive) | > 5.01 µM (inactive) | O=C(Nc1cccc(C(F)(F)F)n1)Nc1ccnc2cc(Cl)ccc12
